Experimental data: patent US8404898B2, “Integrated process for the preparation of polybenzimidazole precursors” (E I du Pont de Nemours and Company, priority 2008, dated 2013)

Assay: solubility of TAT salt in water
Type: physicochemical
Conditions: water at 25° C.
Procedure: The reaction mixture containing the precipitated TAT salt is then cooled to about 5° C. to about 15° C. and stirred, then filtered. The TAT salt is then washed 44. […] Using an agitated filter unit during the wash procedures can allow for a reduction of the wash volumes. Under such circumstances, using small amounts of cold (e.g., about 5° C.) water instead of the aqueous acid would be effective; cold water would be used because of lower solubility of the TAT salt in cold water versus, e.g., room temperature. For example, the solubility of TAT.4HCl in water at 25° C. is about 16 wt %.

Cc1c(N)c(N)cc(N)c1N [TAT.4HCl, 2,3,5,6-tetraminotoluene]
solubility in water: about 16 wt %
